Tests used:
Type in all cases: binding
[1] = molecular target: T1, recombinant P300 bromodomain (Homo sapiens, UniProt Q09472); test: P300 TR-FRET displacement assay; details: dose-response, read-out: IC50 (group A, B, C)
T1 construct: recombinant P300 bromodomain obtained from BPS Bioscience, USA; purchased BPS Bioscience, USA
T1 sequence (Q09472 1049-1156 limits assumed): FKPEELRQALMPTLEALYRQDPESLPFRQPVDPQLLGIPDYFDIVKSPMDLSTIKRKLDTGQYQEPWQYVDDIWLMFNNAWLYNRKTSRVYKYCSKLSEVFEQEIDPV
Method: The potency of compounds to inhibit P300 enzyme was tested in a TR-FRET displacement assay using recombinant P300 bromodomain obtained from BPS Bioscience, USA. The assay buffer was 50 mM HEPES (pH 7.5), 50 mM NaCl, 0.008% Brij 35, 0.01% BSA, 1 mM TCEP. 50 nM of P300 & 500 nM of Biotinylated ligand was incubated at room temperature for 30 minutes, the reaction was initiated by adding the pre-incubated enzyme ligand mixture to the test compounds. After 60 min incubation, the reaction was stopped by the addition of stop mix containing 1 nM of LANCE Europium-anti-6xHis antibody (Perkin Elmer, USA) and 40 nM of Sure Light Allophycocyanin-Streptavidin (Perkin Elmer, USA). Fluorescence emission of the samples at 665 and 615 nm were measured at an excitation of 340 nm and their ratio was plotted against the compound concentrations to generate dose-response curve.
Selected compounds of the present invention were screened in the above-mentioned assay procedures and IC50 values were determined by fitting the dose-response data to sigmoidal curve fitting equation using Graph pad prism software V7.

[2] = molecular target: T2, recombinant CREBBP bromodomain (Homo sapiens, UniProt Q92793); test: CBP TR-FRET displacement assay; details: for inhibition at 10 µM: compound at 10 μM; for IC50: dose-response, read-out: IC50 (group A, B, C)
T2 construct: recombinant CREBBP bromodomain obtained from BPS Bioscience, USA; purchased BPS Bioscience, USA
T2 sequence (Q92793 1085-1192 limits assumed): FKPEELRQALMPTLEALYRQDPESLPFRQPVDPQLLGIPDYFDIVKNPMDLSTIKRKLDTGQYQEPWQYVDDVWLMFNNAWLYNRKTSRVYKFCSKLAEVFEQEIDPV
Summary of the method: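 CREBBP bromodomain (50 nM) preincubated 30 min at room temperature with 500 nM biotinylated ligand in HEPES pH 7.5 buffer with TCEP, then 60 min with compound. Eu-anti-His/APC-streptavidin TR-FRET 665/615 nm ratio read; IC50 from sigmoidal dose-response fit.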

[3] = molecular target: T3, recombinant BRD4 FL bromodomain (Homo sapiens, UniProt O60885); test: BRD4 FL TR-FRET displacement assay; details: BRD4 FL; for IC50: dose-response, read-out: IC50 (group A, B, C); for inhibition at 10 µM: compound at 10 μM, read-out: % Inhibition (10 μM)
T3 construct: fused on or other part: 6xHis tag, inferred from detection with Mab ANTI 6HIS-XL665
Summary of the method: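 Recombinant BRD4 FL (10 nM) pre-incubated 30 min at room temperature with 300 nM biotinylated acetyl-histone H4 (K5/8/12/16) in 50 mM HEPES pH 7.5, 50 mM NaCl, 500 μM CHAPS, then added to compounds for 30 min. Stopped with Eu-streptavidin/anti-6His-XL665 in KF; 665/615 nm ratio fitted sigmoidally for IC50.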

IC50 [1] [nM] | inhibition at 10 µM [2] [%] | IC50 [2] [nM] | IC50 [3] [nM] | inhibition at 10 µM [3] [%] | SMILES
< 25 | 95 | < 50 | – | – | Cc1cc2c(N3CCN(C)c4cc(-c5cnn(C)c5)c(C#N)cc43)cc(OCC3CCCN(C)C3)cc2n(C)c1=O (single isomer, unassigned) [Example 247, 4-(1,3-Dimethyl-7-((1-methylpiperidin-3-yl)methoxy)-2-oxo-1,2-dihydroquinolin-5-yl)-1-methyl-7-(1-methyl-1H-pyrazol-4-yl)-1,2,3,4-tetrahydroquinoxaline-6-carbonitrile]
< 25 | 99 | < 50 | – | – | COc1cc(N2CCN(C)c3cc(-c4cnn(C)c4)c(C#N)cc32)c2cc(C)c(=O)n(C)c2c1 [Example 1, 4-(7-Methoxy-1,3-dimethyl-2-oxo-1,2-dihydroquinolin-5-yl)-1-methyl-7-(1-methyl-1H-pyrazol-4-yl)-1,2,3,4-tetrahydroquinoxaline-6-carbonitrile]
< 25 | – | < 50 | – | – | Cc1cc2c(N3CCN(C)c4cc(-c5cnn(C)c5)c(C#N)cc43)cccc2[nH]c1=O [Example 2, 1-methyl-7-(1-methyl-1H-pyrazol-4-yl)-4-(3-methyl-2-oxo-1,2-dihydroquinolin-5-yl)-1,2,3,4-tetrahydroquinoxaline-6-carbonitrile]
> 50000 | – | > 10 | – | – | Cc1cc2c(N3CCN(C)c4cc(-c5cnn(C)c5)c(C#N)cc43)cc(OCC(=O)OC(C)(C)C)cc2n(C)c1=O [Example 3, Tert-butyl 2-((5-(7-cyano-4-methyl-6-(1-methyl-1H-pyrazol-4-yl)-3,4-dihydroquinoxalin-1(2H)-yl)-1,3-dimethyl-2-oxo-1,2-dihydroquinolin-7-yl)oxy)acetate]
> 50000 | – | > 10 | – | – | COc1ccc(CN2CCN(c3cc(OC)cc4c3cc(C)c(=O)n4C)c3cc(C#N)c(-c4cnn(C)c4)cc32)cc1 [Example 8, 4-(7-methoxy-1,3-dimethyl-2-oxo-1,2-dihydroquinolin-5-yl)-1-(4-methoxybenzyl)-7-(1-methyl-1H-pyrazol-4-yl)-1,2,3,4-tetrahydroquinoxaline-6-carbonitrile]
< 25 | – | < 50 | – | – | COc1cc(N2CCN(C)c3cc(-c4ccnn4C)c(C#N)cc32)c2cc(C)c(=O)n(C)c2c1 [Example 9]
25 to 50 | – | < 50 | – | – | COc1cc(N2CCN(C)c3cc(-n4cc(C)cn4)c(C#N)cc32)c2cc(C)c(=O)n(C)c2c1 [Example 10]
< 25 | – | < 50 | – | – | CNC(=O)c1ccc(-c2cc3c(cc2C#N)N(c2cc(OC)cc4c2cc(C)c(=O)n4C)CCN3C)cn1 [Example 11]
< 25 | – | < 50 | – | – | COc1cc(N2CCN(C)c3cc(-c4c(C)nn(C)c4C)c(C#N)cc32)c2cc(C)c(=O)n(C)c2c1 [Example 12]
< 25 | – | < 50 | – | – | COc1cc(N2CC(C)N(C)c3cc(-c4cnn(C)c4)c(C#N)cc32)c2cc(C)c(=O)n(C)c2c1 (stereo not shown) [Example 13]
< 25 | – | < 50 | – | – | COc1cc(N2CCN(C)c3cc(-c4ccn(C)n4)c(C#N)cc32)c2cc(C)c(=O)n(C)c2c1 [Example 14]
25 to 50 | – | < 50 | – | – | COc1cc(N2CCN(C)c3cc(-c4cccnc4)c(C#N)cc32)c2cc(C)c(=O)n(C)c2c1 [Example 15]
< 25 | – | < 50 | – | – | COc1cc(N2CCN(C)c3cc(-c4cnc(O)nc4)c(C#N)cc32)c2cc(C)c(=O)n(C)c2c1 [Example 16]
> 50000 | – | < 50 | – | – | COc1cc(N2CCN(C)c3cc(C4=CCN(C)CC4)c(C#N)cc32)c2cc(C)c(=O)n(C)c2c1 [Example 17]
25 to 50 | – | < 50 | – | – | COc1cc(N2CCN(C)c3cc(N4CCOCC4)c(C#N)cc32)c2cc(C)c(=O)n(C)c2c1 [Example 18]
25 to 50 | – | < 50 | – | – | COc1cc(N2CCN(C)c3cc(N4CCN(C)CC4)c(C#N)cc32)c2cc(C)c(=O)n(C)c2c1 [Example 19]
25 to 50 | – | < 50 | – | – | COc1cc(N2CCN(C)c3cc(N4CCC(O)C4)c(C#N)cc32)c2cc(C)c(=O)n(C)c2c1 (stereo not shown) [Example 20]
< 25 | – | < 50 | – | – | COc1cc(N2CCN(C)c3cc(N4CCN(C(C)=O)CC4)c(C#N)cc32)c2cc(C)c(=O)n(C)c2c1 [Example 23]

IC50 [1] [nM] | inhibition at 10 µM [2] [%] | IC50 [2] [nM] | IC50 [3] [nM] | inhibition at 10 µM [3] [%] | SMILES
25 to 50 | – | < 50 | – | – | COc1cc(N2CCN(C3CC3)c3cc(N4CCN(C)CC4)c(C#N)cc32)c2cc(C)c(=O)n(C)c2c1 [Example 25]
< 25 | 96 | < 50 | – | – | Cc1cc2c(N3CCN(C)c4cc(-c5cnn(C)c5)c(C#N)cc43)cc(OCC3CCCN(C)C3)cc2n(C)c1=O (stereo not shown) [Example 35]
< 25 | 100 | < 50 | – | – | Cc1cc2c(N3CCN(C)c4cc(-c5cnn(C)c5)c(C#N)cc43)cc(OCCN3CCOCC3)cc2n(C)c1=O [Example 36]
< 25 | 100 | < 50 | – | – | COCCOc1cc(N2CCN(C)c3cc(-c4cnn(C)c4)c(C#N)cc32)c2cc(C)c(=O)n(C)c2c1 [Example 37]
> 50000 | 98 | < 50 | – | – | Cc1ccc2[nH]c(=O)c(C)cc2c1N1CCN(C)c2cc(-c3cnn(C)c3)c(C#N)cc21 [Example 38]
< 25 | – | < 50 | – | – | Cc1cc2c(N3CCN(C)c4cc(-c5cnn(C)c5)c(C#N)cc43)cc(OCCN(C)C)cc2n(C)c1=O [Example 39]
25 to 50 | – | < 50 | – | – | Cc1cc2c(N3CCN(C)c4cc(-c5cnn(C)c5)c(C#N)cc43)cc(OC3COC3)cc2n(C)c1=O [Example 40]
< 25 | – | < 50 | – | – | Cc1cc2c(N3CCN(C)c4cc(-c5cnn(C)c5)c(F)cc43)cc(N3CCOCC3)cc2n(C)c1=O [Example 48]
> 50000 | 91 | > 10 | – | – | Cc1cc2c(N3CCN(C)c4cc(-c5cnn(C)c5)c(C#N)cc43)nccc2[nH]c1=O [Example 54]
– | – | < 50 | 2010 to 5000 | – | Cc1cc2c(N3CCCc4cc(-c5cnn(C)c5)c(C(F)F)cc43)nc(N3C4CCC3COC4)cc2n(C)c1=O [Example 218]
– | – | < 50 | 2010 to 5000 | – | Cc1cc2c(N3CCCc4cc(-c5cnn(C)c5)c(C(F)F)cc43)nc(N3C[C@@H]4C[C@H]3CO4)cc2n(C)c1=O [Example 219]
– | – | > 10 | 2010 to 5000 | – | Cc1cc2c(N3CCN(C)c4cc(-c5cnn(C)c5)ncc43)nc(N3CC4(COC4)C3)cc2n(C)c1=O [Example 220]
– | – | 51 to 100 | 2010 to 5000 | – | Cc1cc2c(N3CCCc4cc(-c5nnn(C)n5)c(C(F)F)cc43)nc(N3CCOCC3)cc2n(C)c1=O [Example 226]
– | – | > 10 | – | 21 | Cc1cc2c(N3CCCc4ccc(C(F)F)cc43)nc(N3CCC(O)C3)cc2n(C)c1=O (stereo not shown) [Example 230]
– | – | 51 to 100 | 2010 to 5000 | – | COc1cc2c(cc(C)c(=O)n2C)c(N2CCCc3cc(-c4cnn(C)c4)c(C(F)F)cc32)n1 [Example 233, 5-(7-(Difluoromethyl)-6-(1-methyl-1H-pyrazol-4-yl)-3,4-dihydroquinolin-1(2H)-yl)-7-methoxy-1,3-dimethyl-1,6-naphthyridin-2(1H)-one]
– | – | 51 to 100 | – | 22 | Cc1cc2c(N3CCCc4cc(-c5cnn(C)c5)c(C(F)F)cc43)nc(C3=CCOCC3)cc2n(C)c1=O [Example 241, 5-(7-(Difluoromethyl)-6-(1-methyl-1H-pyrazol-4-yl)-3,4-dihydroquinolin-1(2H)-yl)-7-(3,6-dihydro-2H-pyran-4-yl)-1,3-dimethyl-1,6-naphthyridin-2(1H)-one]
– | – | > 10 | 2010 to 5000 | – | CC1Cc2c(cc(N3CC[C@@H](O)C3)nc2N2CCCc3cc(-c4cnn(C)c4)c(C(F)F)cc32)N(C)C1=O (stereo partly drawn) [Example 243, 5-(7-(Difluoromethyl)-6-(1-methyl-1H-pyrazol-4-yl)-3,4-dihydroquinolin-1(2H)-yl)-7-((R)-3-hydroxypyrrolidin-1-yl)-1,3-dimethyl-3,4-dihydro-1,6-naphthyridin-2(1H)-one]
– | – | < 50 | 2010 to 5000 | – | Cc1cc2c(N3CCCc4cc(-c5cnn(C)c5)c(O)cc43)nc(N3CCC(O)C3)cc2n(C)c1=O (stereo not shown) [Example 245, 5-(7-Hydroxy-6-(1-methyl-1H-pyrazol-4-yl)-3,4-dihydroquinolin-1(2H)-yl)-7-(3-hydroxypyrrolidin-1-yl)-1,3-dimethyl-1,6-naphthyridin-2(1H)-one]

— patent US20230322724A1, “HETEROCYCLIC COMPOUNDS AS CBP/EP300 BROMODOMAIN INHIBITORS” (AURIGENE ONCOLOGY LIMITED, priority 2020, published 2023)
